Here are results for one compound from patent US20180264134A1, “A COMPOSITION OF GOLD NANOPARTICLES HAVING ANTIMICROBIAL PEPTIDES BOUND ON THEIR SURFACE FOR USE THE TREATMENT OF WOUND HEALING OR IN THE TREATMENT OF ISCHEMIC OR VASCULAR DISEASES OR IN THE TREATMENT OF SKIN DISORDERS” (priority 2015, published 2018).

Values after ≈ are worked out from the molar mass of the structure shown.

In one experiment the test system is HaCaT. The experiment is described as follows: Membrane potential by DiOC5(3) flow cytometry in HaCaT. Type of experiment: cell-based, human. The method, then:
In an embodiment the membrane potential can be determined by: HUVEC and HaCaT cells were seeded at a density of 4×10^4 cells/cm^2 and in 24-well plates and cultured for 24 h. […] Soluble LL37 were also used in the concentration of 0.5, 1, 10, 30, 60 μg/mL. After 5 and 48 h, cells were harvested, resuspended in medium with 5 nM of DiOC5(3) (Sigma-Aldrich) and incubated for 5 min at room temperature in the dark, prior to the analysis with the flow cytometer (FACSCalibur, BD Biosciences). Cells treated with gramicidin (10 μM) or valinomycin (10 μM) were used as controls for cell depolarization and hyperpolarization, respectively.

In a further experiment the test system is HUVECs. The experiment can be described thus: Membrane potential by DiOC5(3) flow cytometry in HUVECs. Conditions: 5 h exposure. Format: cell-based, human. The method, then: In an embodiment the membrane potential can be determined by: HUVEC and HaCaT cells were seeded at a density of 4×10^4 cells/cm^2 and in 24-well plates and cultured for 24 h. Either LL37 Au-NPs or Au-NPs suspended in culture medium at different concentrations (25, 50, 100 and 200 μg/mL, n=3) were added to cells. Soluble LL37 were also used in the concentration of 0.5, 1, 10, 30, 60 μg/mL. After 5 and 48 h, cells were harvested, resuspended in medium with 5 nM of DiOC5(3) (Sigma-Aldrich) and incubated for 5 min at room temperature in the dark, prior to the analysis with the flow cytometer (FACSCalibur, BD Biosciences). Cells treated with gramicidin (10 μM) or valinomycin (10 μM) were used as controls for cell depolarization and hyperpolarization, respectively.

The subject of experiment [1] is Escherichia coli (ATCC 25922). Format: cell-based. Conditions: 10^5 CFU of E. coli. On the procedure: The antimicrobial activity testing may be: Escherichia coli (ATCC 25922) was grown at 37° C. and maintained on LB plates (Luria-Bertani broth with 1.5% agar). […] Aliquots (100 μL) were taken out from the respective suspensions at 2 h intervals and diluted in PBS buffer to give 10^3 bacteria per mL and plated on LB agar plates followed by incubation at 37° C. Colonies were counted after 24 h of incubation. The collected supernatant was tested for antimicrobial activity as described above.

Experiment [2] has as its system chorioallantoic membrane (CAM). The experiment can be described thus: Chorioallantoic membrane (CAM) assay. Type of experiment: in vivo. Conditions: CAM vs vehicle. On the procedure:
In an embodiment, the evaluation of the pro-angiogenic properties of LL37-Au NPs. […] The formation of new blood vessels is a prerequisite of tissue repair and wound healing. Therefore, it was evaluated the inductive properties of LL37 and LL37-Au NPs on human umbilical vein endothelial cells (HUVECs) to secrete vascular endothelial growth factor (VEGF165) (FIG. 14b). […] Next, the assessment of the pro-angiogenic activity of LL37 and LL37-Au NPs in a chorioallantoic membrane (CAM) assay was made.

The subject of a further experiment is ERK1/2. The experiment is described as follows: ERK1/2 phosphorylation in HaCaT (ELISA). Format: cell-based, human. Conditions: LL37 5 μg/mL; LL37-Au NPs 200 μg/mL. The method, then: In an embodiment the detection of EGFR and ERK1/2 phosphorylation, can be perform by: the activation of EGFR receptor in HaCaT (80% confluency, in 6-well plates) was induced by starving the cells for 24 h in DMEM supplemented with 1% (v/v) penicillin and adding soluble LL37, LL37-Au NPs and Au NPs for a given period of time. Following treatment, the plates were immersed in ice and the medium was discarded. Then the proteins were isolated from the cells . . . . The levels of EGFR (phosphorylated EGFR and total EGFR) were determined by ELISA kit (R&D Systems). The activation of ERK signaling pathways in HaCaT (80% confluency, in one 96-well cell culture clear-bottom black microplate) were obtained starving the cells for 24 h in DMEM supplemented with 1% (v/v) penicillin and then stimulating them with soluble LL37 (5 μg/mL), LL37-Au NPs and Au NPs (200 μg/mL). After treatments the level of ERK were determined using a phosphoprotein and total protein ELISA kit (R&D Systems ref. KCB1018) according to the manufacture's instructions. Data were acquired with a BioTek synergy MX microplate reader.
Background: ELISA stands for enzyme-linked immunosorbent assay.

The test system of another experiment is HaCaT cells. The experiment is described as follows: Whole-cell patch-clamp recordings of HaCaT cells. Format: cell-based, human. On the procedure: In an embodiment, the NP bioactivity was carried out as follows: electrophysiological recordings. Whole-cell patch-clamp recordings of HaCaT cells were performed using borosilicate glass patch pipettes with a resistance of 2-5 MΩ and compensating the series resistance by 50-60% with a List EPC-7 amplifier, as described previously^56. The pipettes were filled with (in mM): 135 K-gluconate, 10 CsCl, 0.4 NaH2PO4, 0.73 CaCl2, 1 MgCl2, 1 EGTA, and 14 HEPES (pH 7.4). The external solution contained (mM): 140 NaCl, 3 KCl, 2 CaCl2, 1 MgCl2, 15 HEPES and 10 glucose (pH 7.4). Cells were rapidly perfused as previously described and all experiments were carried out at RT (22-25° C.). The currents were recorded at −70 mV, filtered (2-pole Butterworth filter, −12 dB/octave) and digitized to a personal computer at a sampling rate of 1 kHz for analysis using pCLAMP software (AXON instruments). Charge transfer was calculated by the integration of the area under the current in the first 100 s (Q100) from the beginning of the exposure to Au NPs, LL37 or LL37-Au NPs in the absence or presence of apyrase (darker background; 20 U/mL; Sigma).
Background: The patch-clamp technique gives a direct electrical read-out from membranes.

In the case of `CC[C@H](C)[C@H](NC(=O)[C@H](CCCCN)NC(=O)[C@H](CCC(=O)O)NC(=O)[C@H](CCCCN)NC(=O)[C@H](CO)NC(=O)[C@H](CCCCN)NC(=O)[C@H](CCCNC(=N)N)NC(=O)[C@H](Cc1ccccc1)NC(=O)[C@H](Cc1ccccc1)NC(=O)[C@H](CC(=O)O)NC(=O)CNC(=O)[C@H](CC(C)C)NC(=O)[C@@H](N)CC(C)C)C(=O)NCC(=O)N[C@@H](CCCCN)C(=O)N[C@@H](CCC(=O)O)C(=O)N[C@@H](Cc1ccccc1)C(=O)N[C@@H](CCCCN)C(=O)N[C@@H](CCCNC(=N)N)C(=O)N[C@H](C(=O)N[C@H](C(=O)N[C@@H](CCC(N)=O)C(=O)N[C@@H](CCCNC(=N)N)C(=O)N[C@H](C(=O)N[C@@H](CCCCN)C(=O)N[C@@H](CC(=O)O)C(=O)N[C@@H](Cc1ccccc1)C(=O)N[C@@H](CC(C)C)C(=O)N[C@@H](CCCNC(=N)N)C(=O)N[C@@H](CC(N)=O)C(=O)N[C@@H](CC(C)C)C(=O)N[C@H](C(=O)N1CCC[C@H]1C(=O)N[C@@H](CCCNC(=N)N)C(=O)N[C@H](C(=O)N[C@@H](CCC(=O)O)C(=O)N[C@@H](CO)C(=O)N[C@@H](CS)C(N)=O)[C@@H](C)O)C(C)C)[C@@H](C)CC)C(C)C)[C@@H](C)CC` [LL37], the “membrane potential of keratinocytes” value with HaCaT (5 h of contact) is reported as “hyperpolarized”; with HaCaT (48 h of contact), “not observed”; with HaCaT (48 h of contact, listed as LL37 peptide), “the effect was lost”. Besides, the “membrane potential of HaCaT” value in the experiment with HaCaT (NPs up to 400 μg/mL) is on record as “not altered”. Moreover, the “concentration causing slight hyperpolarization” value with HaCaT (keratinocytes, 5 h exposure) is “above 25 μg/mL”. For the same compound, the concentration causing depolarization result with HUVECs was “above 30 μg/mL”. In the experiment on HUVECs, the concentration causing hyperpolarization result was “below 30 μg/mL”. In experiment [1], the “minimal inhibition concentration (MIC)” value turned out to be 5 µg/mL (≈ 1.09 µM). Further, the “pro-angiogenic activity (vessel growth)” value in experiment [2] is “induced vessel growth”. The “time of peak ERK1/2 phosphorylation” value with ERK1/2 turned out to be 4 min. Also, the “effect of apyrase on charge transfer / inward current” value in the experiment with HaCaT cells (apyrase 20 U/mL) is “no decrease”. In the experiment on HaCaT cells (holding potential −70 mV), the inward current result is “elicited an inward current”.
